target: USP1 (construct USP1 (I-785, GG670, 671AA)/UAF1 (I-677)-Flag) (Homo sapiens (Human), UniProt O94782, G670A/G671A); assay: Ubiquitin-Rhodamine 110 assay for USP1 activity; assay type: biochemical; settings: USP1/UAF1 25 pM, Ub-Rh110 25 nM, 30 min preincubation
Outline: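 Ub-Rh110 (25 nM, ≪Km) cleavage read at ex 485/em 535 in Tris pH 8.0, CaCl2, GSH, Prionex, Triton X-100. The screen used 10 µM compound, 100 pM USP1/UAF1 and 45 min at RT.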

Sequence of USP1 (construct USP1 (I-785, GG670, 671AA)/UAF1 (I-677)-Flag) (O94782 whole entry G670A/G671A): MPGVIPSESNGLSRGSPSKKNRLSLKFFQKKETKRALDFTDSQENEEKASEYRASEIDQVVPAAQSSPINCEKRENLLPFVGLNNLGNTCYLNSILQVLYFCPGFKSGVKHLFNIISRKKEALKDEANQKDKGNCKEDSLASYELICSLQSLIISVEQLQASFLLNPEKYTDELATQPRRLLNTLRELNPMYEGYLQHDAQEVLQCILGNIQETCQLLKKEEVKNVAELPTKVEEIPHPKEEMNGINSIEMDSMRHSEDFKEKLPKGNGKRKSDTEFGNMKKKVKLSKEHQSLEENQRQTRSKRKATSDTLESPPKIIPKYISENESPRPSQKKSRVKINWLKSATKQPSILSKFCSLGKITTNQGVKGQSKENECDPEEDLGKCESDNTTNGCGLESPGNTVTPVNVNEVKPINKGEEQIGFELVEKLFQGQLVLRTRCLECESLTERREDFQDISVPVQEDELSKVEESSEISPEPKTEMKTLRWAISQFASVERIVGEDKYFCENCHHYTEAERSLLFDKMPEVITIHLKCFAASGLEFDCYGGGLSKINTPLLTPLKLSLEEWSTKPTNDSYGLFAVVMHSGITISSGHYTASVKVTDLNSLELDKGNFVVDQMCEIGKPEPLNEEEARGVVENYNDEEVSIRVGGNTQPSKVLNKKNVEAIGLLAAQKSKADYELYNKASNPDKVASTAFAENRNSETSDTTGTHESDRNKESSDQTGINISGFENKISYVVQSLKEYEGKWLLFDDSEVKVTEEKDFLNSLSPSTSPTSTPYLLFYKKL
Sequence of USP1 (construct USP1 (I-785, GG670, 671AA)/UAF1 (I-677)-Flag) (Q8TAF3 whole entry partner): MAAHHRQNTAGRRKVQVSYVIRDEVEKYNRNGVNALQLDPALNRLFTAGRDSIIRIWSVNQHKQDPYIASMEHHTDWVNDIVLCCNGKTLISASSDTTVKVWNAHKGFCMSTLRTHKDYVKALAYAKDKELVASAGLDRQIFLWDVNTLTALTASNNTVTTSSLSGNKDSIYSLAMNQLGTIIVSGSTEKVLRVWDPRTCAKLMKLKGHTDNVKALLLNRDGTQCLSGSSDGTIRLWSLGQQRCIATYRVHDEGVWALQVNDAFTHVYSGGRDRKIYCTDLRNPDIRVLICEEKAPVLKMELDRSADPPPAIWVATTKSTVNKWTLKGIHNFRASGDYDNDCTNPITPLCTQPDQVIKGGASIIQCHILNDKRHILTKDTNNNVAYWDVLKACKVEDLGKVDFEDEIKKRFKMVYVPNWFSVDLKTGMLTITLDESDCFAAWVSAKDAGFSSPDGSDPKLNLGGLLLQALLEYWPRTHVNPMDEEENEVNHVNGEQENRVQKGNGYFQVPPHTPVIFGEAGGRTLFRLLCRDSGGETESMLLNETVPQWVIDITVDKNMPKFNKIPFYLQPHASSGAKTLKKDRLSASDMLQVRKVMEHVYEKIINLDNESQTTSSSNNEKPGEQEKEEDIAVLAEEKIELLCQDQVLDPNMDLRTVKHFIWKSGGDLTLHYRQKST

SMILES	IC50 [nM]
Cc1cn(C)c(-c2ccc(Cn3c(=O)[nH]c4cnc(-c5cccc(F)c5C(C)C)nc43)cc2)n1 [Compound I-307, 9-(4-(1,4-dimethyl-1H-imidazol-2-yl)benzyl)-2-(3-fluoro-2-isopropylphenyl)-7,9-dihydro-8H-purin-8-one]	< 50
CC(C)c1c(F)cccc1-c1ncc2[nH]c(=O)n(Cc3ccc(-c4cn(C)cn4)cc3)c2n1 [Compound I-308, 2-(3-fluoro-2-isopropylphenyl)-9-(4-(1-methyl-1H-imidazol-4-yl)benzyl)-7,9-dihydro-8H-purin-8-one]	< 50
CC(C)c1ccccc1-c1ncc2[nH]c(=O)n([C@H](C)c3ccc(-c4nccn4C)cc3)c2n1 [Compound I-309, (R)-2-(2-isopropylphenyl)-9-(1-(4-(1-methyl-1H-imidazol-2-yl)phenyl)ethyl)-7,9-dihydro-8H-purin-8-one]	< 50
CC(C)c1ccccc1-c1ncc2[nH]c(=O)n([C@@H](C)c3ccc(-c4nccn4C)cc3)c2n1 [Compound I-310, (S)-2-(2-isopropylphenyl)-9-(1-(4-(1-methyl-1H-imidazol-2-yl)phenyl)ethyl)-7,9-dihydro-8H-purin-8-one]	< 50
CNc1ncccc1-c1ncc2[nH]c(=O)n(Cc3ccc(-c4nc(C(F)(F)F)cn4C)cc3)c2n1 [Compound I-311, 9-(4-(1-methyl-4-(trifluoromethyl)-1H-imidazol-2-yl)benzyl)-2-(2-(methylamino)pyridin-3-yl)-7,9-dihydro-8H-purin-8-one]	< 50
CCNc1ncccc1-c1ncc2[nH]c(=O)n(Cc3ccc(-c4nc(C(F)(F)F)cn4C)cc3)c2n1 [Compound I-312, 2-(2-(ethylamino)pyridin-3-yl)-9-(4-(1-methyl-4-(trifluoromethyl)-1H-imidazol-2-yl)benzyl)-7,9-dihydro-8H-purin-8-one]	< 50
CC(C)Nc1ncccc1-c1ncc2[nH]c(=O)n(Cc3ccc(-c4nc(C(F)(F)F)cn4C)cc3)c2n1 [Compound I-313, 2-(2-(isopropylamino)pyridin-3-yl)-9-(4-(1-methyl-4-(trifluoromethyl)-1H-imidazol-2-yl)benzyl)-7,9-dihydro-8H-purin-8-one]	< 50
Cn1cc(C(F)(F)F)nc1-c1ccc(Cn2c(=O)[nH]c3cnc(-c4cccnc4NC4CC4)nc32)cc1 [Compound I-314, 2-(2-(cyclopropylamino)pyridin-3-yl)-9-(4-(1-methyl-4-(trifluoromethyl)-1H-imidazol-2-yl)benzyl)-7,9-dihydro-8H-purin-8-one]	< 50
CCOCCNc1ncccc1-c1ncc2[nH]c(=O)n(Cc3ccc(-c4nc(C(F)(F)F)cn4C)cc3)c2n1 [Compound I-315, 2-(2-((2-ethoxyethyl)amino)pyridin-3-yl)-9-(4-(1-methyl-4-(trifluoromethyl)-1H-imidazol-2-yl)benzyl)-7,9-dihydro-8H-purin-8-one]	< 50
Cn1cc(C(F)(F)F)nc1-c1ccc(Cn2c(=O)[nH]c3cnc(-c4cccnc4NC4CCC4)nc32)cc1 [Compound I-316, 2-(2-(cyclobutylamino)pyridin-3-yl)-9-(4-(1-methyl-4-(trifluoromethyl)-1H-imidazol-2-yl)benzyl)-7,9-dihydro-8H-purin-8-one]	50 to 200
COCC(C)Nc1ncccc1-c1ncc2[nH]c(=O)n(Cc3ccc(-c4nc(C(F)(F)F)cn4C)cc3)c2n1 (stereo not drawn) [Compound I-317, 2-(2-((1-methoxypropan-2-yl)amino)pyridin-3-yl)-9-(4-(1-methyl-4-(trifluoromethyl)-1H-imidazol-2-yl)benzyl)-7,9-dihydro-8H-purin-8-one]	50 to 200
CN(C)C(=O)CNc1ncccc1-c1ncc2[nH]c(=O)n(Cc3ccc(-c4nc(C(F)(F)F)cn4C)cc3)c2n1 [Compound I-318, N,N-dimethyl-2-((3-(9-(4-(1-methyl-4-(trifluoromethyl)-1H-imidazol-2-yl)benzyl)-8-oxo-8,9-dihydro-7H-purin-2-yl)pyridin-2-yl)amino)acetamide]	200 to 2000
COC[C@@H](C)Nc1ncccc1-c1ncc2[nH]c(=O)n(Cc3ccc(-c4nc(C(F)(F)F)cn4C)cc3)c2n1 [Compound I-319, (R)-2-(2-((1-methoxypropan-2-yl)amino)pyridin-3-yl)-9-(4-(1-methyl-4-(trifluoromethyl)-1H-imidazol-2-yl)benzyl)-7,9-dihydro-8H-purin-8-one]	200 to 2000
Cn1cc(C(F)(F)F)nc1-c1ccc(Cn2c(=O)[nH]c3cnc(-c4cccnc4NCC4CCCO4)nc32)cc1 (stereo not drawn) [Compound I-320, 9-(4-(1-methyl-4-(trifluoromethyl)-1H-imidazol-2-yl)benzyl)-2-(2-(((tetrahydrofuran-2-yl)methyl)amino)pyridin-3-yl)-7,9-dihydro-8H-purin-8-one]	50 to 200
Cn1cc(C(F)(F)F)nc1-c1ccc(Cn2c(=O)[nH]c3cnc(-c4cccnc4NC4CCOCC4)nc32)cc1 [Compound I-321, 9-(4-(1-methyl-4-(trifluoromethyl)-1H-imidazol-2-yl)benzyl)-2-(2-((tetrahydro-2H-pyran-4-yl)amino)pyridin-3-yl)-7,9-dihydro-8H-purin-8-one]	200 to 2000
Cn1cc(C(F)(F)F)nc1-c1ccc(Cn2c(=O)[nH]c3cnc(-c4cccnc4N[C@H]4CCOC4)nc32)cc1 [Compound I-322, (S)-9-(4-(1-methyl-4-(trifluoromethyl)-1H-imidazol-2-yl)benzyl)-2-(2-((tetrahydrofuran-3-yl)amino)pyridin-3-yl)-7,9-dihydro-8H-purin-8-one]	50 to 200
CN(C)c1ncccc1-c1ncc2[nH]c(=O)n(Cc3ccc(-c4nc(C(F)(F)F)cn4C)cc3)c2n1 [Compound I-323, 2-(2-(dimethylamino)pyridin-3-yl)-9-(4-(1-methyl-4-(trifluoromethyl)-1H-imidazol-2-yl)benzyl)-7,9-dihydro-8H-purin-8-one]	< 50
CCN(CC)c1ncccc1-c1ncc2[nH]c(=O)n(Cc3ccc(-c4nc(C(F)(F)F)cn4C)cc3)c2n1 [Compound I-324, 2-(2-(diethylamino)pyridin-3-yl)-9-(4-(1-methyl-4-(trifluoromethyl)-1H-imidazol-2-yl)benzyl)-7,9-dihydro-8H-purin-8-one]	< 50
Cn1cc(C(F)(F)F)nc1-c1ccc(Cn2c(=O)[nH]c3cnc(-c4cccnc4N4CCCC4)nc32)cc1 [Compound I-325, 9-(4-(1-methyl-4-(trifluoromethyl)-1H-imidazol-2-yl)benzyl)-2-(2-(pyrrolidin-1-yl)pyridin-3-yl)-7,9-dihydro-8H-purin-8-one]	< 50
Cn1cc(C(F)(F)F)nc1-c1ccc(Cn2c(=O)[nH]c3cnc(-c4cccnc4N4CCCCC4)nc32)cc1 [Compound I-326, 9-(4-(1-methyl-4-(trifluoromethyl)-1H-imidazol-2-yl)benzyl)-2-(2-(piperidin-1-yl)pyridin-3-yl)-7,9-dihydro-8H-purin-8-one]	< 50
COCCN(C)c1ncccc1-c1ncc2[nH]c(=O)n(Cc3ccc(-c4nc(C(F)(F)F)cn4C)cc3)c2n1 [Compound I-327, 2-(2-((2-methoxyethyl)(methyl)amino)pyridin-3-yl)-9-(4-(1-methyl-4-(trifluoromethyl)-1H-imidazol-2-yl)benzyl)-7,9-dihydro-8H-purin-8-one]	50 to 200
